Here are results for 2 compounds from US10654890B2, “Cyclic peptide derivative, method for preparing same and composition thereof” (priority 2014, dated 2020).

For this test, the system named is culture astrocyte. Description: Astrocyte proliferative activity test (BrdU cell proliferation ELISA). The format is cell-based, mouse. The method, then:
A pregnant ICR female mouse was purchased from Japan SLC, Inc., and a neonatal mouse 24 to 48 after birth was used for the test.
A neonatal ICR mouse (24 to 48 after birth) was sufficiently sterilized with 70% ethanol, immersed in 30 ml of PBS (−) in a 100 mm dish (diameter of 100 mm, Orange Scientific) for cell culture, and then placed in a clean bench. The neonatal mouse was subjected to cervical dislocation using tweezers and euthanized. Head of the neonatal mouse was open and the entire brain was removed. The obtained brain was transferred to a 100 mm dish for cell culture in which 15 ml of high glucose Dulbecco's modified Eagle medium (HG-D-MEM, Wako Pure Chemical Industries, Ltd.) is added. By using tweezers, the olfactory bulb, median eminence, and meninges were removed in the medium to obtain only a cerebrum having hippocampus. Subsequently, the obtained cerebrum was transferred to a 100 mm dish for cell culture added with 10 ml of HG-D-MEM, and using a scalpel, the cerebrum was finely cut to be 1 mm^2 or less. The cerebrum after cutting was transferred, together with the medium, to a 50 ml conical tube (TPP), and after allowing it to stand for 2 minutes, the supernatant was removed. Subsequently, the cerebrum after cutting was added with 4 ml of fresh HG-D-MEM, and after further adding 400 μl of 2.5% trypsin (SIGMA) and 40 μl of 1% DNase I (SIGMA), the cerebrum was incubated in a water bath at 37° C. for 10 minutes under intermittent stirring. Subsequently, to the cerebrum after cutting, 10 ml of HG-D-MEM (10% FBS) was added to terminate the reaction of trypsin followed by centrifuge for 3 minutes at 1,000×g using a centrifuge (H-9R, KOKUSAN Co., Ltd.). The supernatant was collected by an electric pipette, 10 ml of HG-D-MEM (10% FBS) was added to a precipitated cell mass, and pipetting using a sterile pipette was carried out several times until the cell mass is not observed. To remove the remaining cell mass from this cell dispersion, the cell dispersion was passed through a cell strainer (pore diameter of 100 μm, BD Falcon™), and the number of cells in the cell dispersion which has passed through the cell strainer was counted by using a cell counting plate. An adjustment was made with HG-D-MEM (10% FBS) such that the number of cells is 6.0×10^5 cells/ml. After the adjustment of the number of cells, the cell dispersion was seeded, in an amount of 7 ml for each, to a Poly-D-Lysine Cellware 100 mm Dish (PDL 100 mm dish, BD Falcon™). 96 Hours after the seeding, the medium was removed once using an aspirator, and after briefly washing the inside of a 100 mm PDL dish with 10 ml of PBS (−), the medium exchange was carried out by newly adding 7 ml of HG-D-MEM. The above method and the astrocyte preparation described below were carried out based on the method of McCarthy and de Vellis (1980, Non Patent Literature 30).
72 Hours after the medium exchange, the 100 mm PDL dish seeded with the cell broth was removed from the incubator, and tightly covered using a parafilm and fixed by overlaying 3 to 4 dishes. The resultant was cultured by shaking using a bioshaker (MULTI SHAKER MMS, INCUBATOR FMS/EYELA) under a condition including 37° C., 100 rpm, and 20 hours, and the neuronal cells, cell debris, dead cells or the like were liberated. At that time, in the inside the 100 mm PDL dish, only the astrocyte as a glial cell in central nervous system other than neuron was adhered (hereinbelow, described as culture astrocyte). After the shaking, the 100 mm PDL dish was transferred to a clean bench, the supernatant was removed by an aspirator and washed with 10 ml of PBS (−), and after adding 1 ml of 2.5% trypsin (SIGMA) using a Pasteur pipette, the dish was left to stand in an incubator for 10 minutes. The 100 mm PDL dish was again brought back to the clean bench, and added with 10 ml of Dulbecco's modified Eagle medium (D-MEM, Wako Pure Chemical Industries, Ltd.) (10% FBS). […]

For the compound `NS(=O)(=O)Cc1noc2ccccc12` [zonisamide, reference compound], where the note is “100 μM, FIG. 7”, the astrocyte proliferation entry is reported as “hardly observed”.
`CNC(=O)Oc1ccc2c(c1)[C@]1(C)CCN(C)[C@@H]1N2C` [eserin, reference compound]: the astrocyte proliferative activity result (25 μM, FIG. 8 and FIG. 9) was “no significant astrocyte proliferative activity was observed”.
